These results are taken from US8299267B2, “(3-hydroxy-4-amino-butan-2-yl) -3- (2-thiazol-2-yl-pyrrolidine-1-carbonyl) benzamide derivatives and related compounds as beta-secretase inhibitors for treating” (CoMentis, Inc., priority 2007, dated 2012).

As a reminder, the IC50 is the concentration needed to halve the response being measured.

The target of one assay is memapsin 2 (Homo sapiens, UniProt P56817). The assay can be described thus: Inhibition of memapsin 2 beta-secretase activity toward fluorogenic substrate FS-2. In kind it is biochemical. The note with it: memapsin 2, pH 4, 37° C., 20 minutes pre-incubation, substrate FS-2; read-out: M2Ki. In a few lines: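 Memapsin 2 was preincubated with compound 20 min at pH 4, 37 °C, then reacted with fluorogenic substrate FS-2 (MCA-SEVNLDAEFK-DNP), an APP-derived Swedish-variant peptide. Inhibition was followed kinetically by fluorescence.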

Another assay deals with T1, memapsin 1 (Homo sapiens, UniProt Q9Y5Z0).
T1 sequence (Q9Y5Z0 63-518): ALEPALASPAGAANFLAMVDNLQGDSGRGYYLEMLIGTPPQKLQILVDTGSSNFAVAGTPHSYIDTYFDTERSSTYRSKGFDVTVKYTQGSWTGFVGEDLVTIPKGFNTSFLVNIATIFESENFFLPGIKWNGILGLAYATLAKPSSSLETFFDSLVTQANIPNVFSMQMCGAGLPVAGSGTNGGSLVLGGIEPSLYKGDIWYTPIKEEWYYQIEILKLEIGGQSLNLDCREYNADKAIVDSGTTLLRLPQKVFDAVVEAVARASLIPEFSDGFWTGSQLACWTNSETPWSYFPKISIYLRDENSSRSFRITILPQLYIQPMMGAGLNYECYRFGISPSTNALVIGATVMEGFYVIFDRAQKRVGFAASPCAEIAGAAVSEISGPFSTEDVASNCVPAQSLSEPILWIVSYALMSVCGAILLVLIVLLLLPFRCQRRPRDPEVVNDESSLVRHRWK
The assay can be described thus: Inhibition of memapsin 1 beta-secretase activity (substrate peptide ELDLAVEFWHDR, MALDI-TOF). The note with it: memapsin 1, pH 4.1, 37 degrees C.; read-out: M1Ki. Format: biochemical. Here is the method:
[The procedure below names another target; the source lists this target under the same test.] (§1) A substrate peptide NH3-ELDLAVEFWHDR-CO2 (SEQ ID NO.: 1) was dissolved at 2 mg/mL in 10% glacial acetic acid and diluted into 0.009M NaOH to obtain μM concentration at pH 4.1. After equilibration at 37 degrees C., the reactions were initiated by the addition of an aliquot of memapsin 2. Aliquots were removed at time intervals, and combined with an equal volume of MALDI-TOF matrix (α-hydroxycinnamic acid in acetone, 20 mg/mL) and immediately spotted in duplicate onto a stainless-steel MALDI sample plate. MALDI-TOF mass spectrometry was performed on a PE Biosystems Voyager DE. The instrument was operated at 25,000 accelerating volts in positive mode with a 150 ns delay. Ions with a mass-to-charge ratio (m/z) were detected in the range of 650-2000 atomic mass units. Data were analyzed by the Voyager Data Explorer module to obtain ion intensity data for mass species of substrates and corresponding products in a given mixture. Relative product formation was calculated as the ratio of signal intensity of the product to the sum of signal intensities of both product and the corresponding substrate. Relative product formed per unit time was obtained from non-linear regression analysis of the data representing the initial 15% formation of product using the model: 1−e^−kT, where k was the relative hydrolytic rate constant and T was time in seconds. Initial rates were expressed relative to uninhibited controls and fit to a tight-binding model of competitive inhibition as above.

The target of a further assay is cathepsin D (Homo sapiens, UniProt P07339). The assay is described as follows: Inhibition of cathepsin D activity (substrate peptide ELDLAVEFWHDR, MALDI-TOF). In kind it is biochemical. The note with it: cathepsin D, pH 4.1, 37 degrees C.; read-out: CDKi. As for the experimental part: [The procedure below names another target; the source lists this target under the same test.] as §1

In assay [1] the test system is Aβ production in Chinese hamster ovary cells that over-express human APP695 with the London and Swedish mutations. The assay is described as follows: Cellular Aβ IC50 determination (Aβ40 sandwich ELISA). In kind it is cell-based. The note with it: Cricetulus griseus; Aβ40 in CHO cells over-expressing human APP695, 24 h incubation. An outline of the steps: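 APP695 (London/Swedish)-overexpressing CHO cells were treated 48 h after seeding with serial dilutions from near 4 μM top concentration (0.4% DMSO) for 24 h at 37 °C. Secreted Aβ40 was quantified by sandwich ELISA relative to controls and fit to a 4-parameter IC50 model.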
(In an ELISA, binding on a coated surface is turned into a signal by an enzyme label.)

cathepsin D, sequence (P07339 65-412, species assumed): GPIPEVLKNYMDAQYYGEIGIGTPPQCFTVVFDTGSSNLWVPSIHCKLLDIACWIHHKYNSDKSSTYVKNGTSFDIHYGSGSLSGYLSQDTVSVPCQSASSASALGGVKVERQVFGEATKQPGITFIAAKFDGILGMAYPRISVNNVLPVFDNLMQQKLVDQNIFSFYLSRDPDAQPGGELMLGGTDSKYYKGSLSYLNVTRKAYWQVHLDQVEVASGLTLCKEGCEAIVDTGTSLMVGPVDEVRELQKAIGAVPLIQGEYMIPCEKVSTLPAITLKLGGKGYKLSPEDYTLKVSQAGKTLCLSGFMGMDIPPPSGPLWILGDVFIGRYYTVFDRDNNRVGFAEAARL
memapsin 2, sequence (P56817 46-501): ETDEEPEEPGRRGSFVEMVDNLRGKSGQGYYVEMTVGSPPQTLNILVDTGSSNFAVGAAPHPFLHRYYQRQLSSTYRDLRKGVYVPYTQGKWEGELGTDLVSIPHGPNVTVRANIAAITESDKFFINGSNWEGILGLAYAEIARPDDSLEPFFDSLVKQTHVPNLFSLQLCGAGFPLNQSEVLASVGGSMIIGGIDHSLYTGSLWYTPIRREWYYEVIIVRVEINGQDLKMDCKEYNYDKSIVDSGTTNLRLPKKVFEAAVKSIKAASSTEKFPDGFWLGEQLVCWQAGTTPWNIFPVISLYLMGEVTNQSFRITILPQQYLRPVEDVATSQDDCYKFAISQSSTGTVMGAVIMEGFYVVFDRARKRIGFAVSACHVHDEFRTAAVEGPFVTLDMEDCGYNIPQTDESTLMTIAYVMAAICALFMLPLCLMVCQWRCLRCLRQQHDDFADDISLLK

`Cc1cc(C(=O)N[C@@H](Cc2ccccc2)[C@H](O)CNCc2cccc(C(C)(C)C)c2)cc(C(=O)N2CCC[C@@H]2c2nc(C)cs2)c1` [Compound 14, N-((2S,3R)-4-(3-tert-butylbenzylamino)-3-hydroxy-1-phenylbutan-2-yl)-3-methyl-5-((R)-2-(4-methylthiazol-2-yl)pyrrolidine-1-carbonyl)benzamide]: the figures for the Ki on memapsin 2, at memapsin 1 and on cathepsin D were under 100 nM, under 300 nM and under 300 nM, respectively. In assay [1], this compound returned an IC50 of under 300 nM.
For the compound `Cc1csc([C@H]2CCCN2C(=O)c2cccc(C(=O)N[C@@H](Cc3ccccc3)[C@H](O)CNCc3cncc(C(C)C)c3)c2)n1` [Compound 2, N-((2S,3R)-3-hydroxy-4-((5-isopropylpyridin-3-yl)methylamino)-1-phenylbutan-2-yl)-3-((R)-2-(4-methylthiazol-2-yl)pyrrolidine-1-carbonyl)benzamide], the Ki at memapsin 2 is under 100 nM; on memapsin 1 it was under 300 nM; at cathepsin D, 301 to 500 nM. For the same compound, the IC50 in assay [1] was under 300 nM.
For the compound `COc1cccc(CNC[C@@H](O)[C@H](Cc2ccccc2)NC(=O)c2cccc(C(=O)N3COC[C@@H]3c3nc(C)cs3)c2)c1` [Compound 15, N-((2S,3R)-3-hydroxy-4-(3-methoxybenzylamino)-1-phenylbutan-2-yl)-3-((R)-4-(4-methylthiazol-2-yl)oxazolidine-3-carbonyl)benzamide], the Ki at memapsin 2 is under 100 nM; at memapsin 1, 301 to 500 nM; at cathepsin D, under 300 nM. This compound had an IC50 in assay [1] of under 300 nM.
Turning to `COc1cccc(CNC[C@@H](O)[C@H](Cc2ccccc2)NC(=O)c2cc(C)cc(C(=O)N3CCC[C@@H]3c3nc(C)cs3)c2)c1` [Compound 6, N-((2S,3R)-3-hydroxy-4-(3-methoxybenzylamino)-1-phenylbutan-2-yl)-3-methyl-5-((R)-2-(4-methylthiazol-2-yl)pyrrolidine-1-carbonyl)benzamide], the Ki at memapsin 2 is under 100 nM; on memapsin 1 it was over 501 nM; on cathepsin D it was 301 to 500 nM. The same compound displayed a half-inhibitory concentration (IC50) in assay [1] of under 300 nM.
Taken in the same sequence, the figures for `Cc1csc([C@H]2CCCN2C(=O)c2cccc(C(=O)N[C@@H](Cc3ccccc3)[C@H](O)CNCc3cccc(C(F)(F)F)c3)c2)n1` [Compound 9, N-((2S,3R)-3-hydroxy-1-phenyl-4-(3-(trifluoromethyl)benzylamino)butan-2-yl)-3-((R)-2-(4-methylthiazol-2-yl)pyrrolidine-1-carbonyl)benzamide] were under 100 nM, 301 to 500 nM, over 501 nM and under 300 nM.
As to `Cc1coc([C@H]2CCCN2C(=O)c2cncc(C(=O)N[C@@H](Cc3ccccc3)[C@H](O)CNCc3cncc(C(C)(C)F)c3)c2)n1` [Compound 73, N-((2S,3R)-4-((5-(2-fluoropropan-2-yl)pyridin-3-yl)methylamino)-3-hydroxy-1-phenylbutan-2-yl)-5-((R)-2-(4-methyloxazol-2-yl)pyrrolidine-1-carbonyl)nicotinamide], the Ki at memapsin 2 is under 100 nM. This compound came in with an IC50 in assay [1] of under 300 nM.
On to `Cc1coc([C@H]2CCCN2C(=O)c2cccc(C(=O)N[C@@H](Cc3ccccc3)[C@H](O)CNCc3cncc(C(C)(C)F)c3)c2)n1` [Compound 39, N-((2S,3R)-4-((5-(2-fluoropropan-2-yl)pyridin-3-yl)methylamino)-3-hydroxy-1-phenylbutan-2-yl)-3-((R)-2-(4-methyloxazol-2-yl)pyrrolidine-1-carbonyl)benzamide], for which the Ki on memapsin 2 is under 100 nM. The half-maximal inhibitory concentration (IC50) in assay [1] is under 300 nM.
On to `COC[C@H]1CCCN1C(=O)c1cc(C)cc(C(=O)N[C@@H](Cc2ccccc2)[C@H](O)CNCc2cncc(C(C)C)c2)c1` [Compound 23, N-((2S,3R)-3-hydroxy-4-((5-isopropylpyridin-3-yl)methylamino)-1-phenylbutan-2-yl)-3-((R)-2-(methoxymethyl)pyrrolidine-1-carbonyl)-5-methylbenzamide], for which, on memapsin 2, the Ki is under 100 nM. Further, the IC50 in assay [1] was under 300 nM.
For `Cc1csc([C@H]2CCCN2C(=O)c2cc(C(=O)N[C@@H](Cc3ccccc3)[C@H](O)CNCc3cccc(C(F)(F)F)c3)cc(-c3ccco3)n2)n1` [Compound 75, 2-(furan-2-yl)-N-((2S,3R)-3-hydroxy-1-phenyl-4-(3-(trifluoromethyl)benzylamino)butan-2-yl)-6-((R)-2-(4-methylthiazol-2-yl)pyrrolidine-1-carbonyl)isonicotinamide], the Ki at memapsin 2 was under 100 nM. The compound further registered a half-inhibitory concentration (IC50) in assay [1] of under 300 nM.
Turning to `Cc1cc(C(=O)N[C@@H](Cc2ccccc2)[C@H](O)CNCc2cncc(C(C)C)c2)cc(C(=O)N2CCC[C@@H]2c2nc(C)co2)c1` [Compound 56, N-((2S,3R)-3-hydroxy-4-((5-isopropylpyridin-3-yl)methylamino)-1-phenylbutan-2-yl)-3-methyl-5-((R)-2-(4-methyloxazol-2-yl)pyrrolidine-1-carbonyl)benzamide], the Ki at memapsin 2 was under 100 nM. In assay [1], this compound had an IC50 of under 300 nM.
The like results for `COc1cccc(CNC[C@@H](O)[C@H](Cc2ccccc2)NC(=O)c2cccc(C(=O)N3CSC[C@@H]3c3nc(C)cs3)c2)c1` [Compound 8, N-((2S,3R)-3-hydroxy-4-(3-methoxybenzylamino)-1-phenylbutan-2-yl)-3-((R)-4-(4-methylthiazol-2-yl)thiazolidine-3-carbonyl)benzamide] were, in that order, under 100 nM and under 300 nM.
The like results for `COc1cc(C(=O)N[C@@H](Cc2ccccc2)[C@H](O)CNCc2cccc(C(C)(C)C)c2)cc(C(=O)N2CCC[C@@H]2c2nc(C)cs2)c1` [Compound 16, N-((2S,3R)-4-(3-tert-butylbenzylamino)-3-hydroxy-1-phenylbutan-2-yl)-3-methoxy-5-((R)-2-(4-methylthiazol-2-yl)pyrrolidine-1-carbonyl)benzamide] were, in that order, under 100 nM and under 300 nM.
The like results for `Cc1csc([C@H]2CCCN2C(=O)c2cc(C(=O)N[C@@H](Cc3ccccc3)[C@H](O)CNCc3cccc(C(F)(F)F)c3)cc(-c3cnccn3)c2)n1` [Compound 49, N-((2S,3R)-3-hydroxy-1-phenyl-4-(3-(trifluoromethyl)benzylamino)butan-2-yl)-3-((R)-2-(4-methylthiazol-2-yl)pyrrolidine-1-carbonyl)-5-(pyrazin-2-yl)benzamide] were, in that order, under 100 nM and under 300 nM.
In the case of `COc1cc(C(=O)N[C@@H](Cc2ccccc2)[C@H](O)CNCc2cncc(C(C)C)c2)cc(C(=O)N2CCC[C@@H]2c2nc(C)cs2)c1` [Compound 83, N-((2S,3R)-3-hydroxy-4-((5-isopropylpyridin-3-yl)methylamino)-1-phenylbutan-2-yl)-3-methoxy-5-((R)-2-(4-methylthiazol-2-yl)pyrrolidine-1-carbonyl)benzamide], at memapsin 2, the Ki is under 100 nM. The compound also registered an IC50 in assay [1] of under 300 nM.
The like results for `Cc1csc([C@H]2CCCN2C(=O)c2cc(C(=O)N[C@@H](Cc3ccccc3)[C@H](O)CNCc3cncc(C(C)C)c3)cc(-c3cnco3)c2)n1` [Compound 33, N-((2S,3R)-3-hydroxy-4-((5-isopropylpyridin-3-yl)methylamino)-1-phenylbutan-2-yl)-3-((R)-2-(4-methylthiazol-2-yl)pyrrolidine-1-carbonyl)-5-(oxazol-5-yl)benzamide] were, in that order, under 100 nM and under 300 nM.
Turning to `C=C(C)c1cccc(CNC[C@@H](O)[C@H](Cc2ccccc2)NC(=O)c2cccc(C(=O)N3CCC[C@@H]3c3nc(C)co3)c2)c1` [Compound 105, N-((2S,3R)-3-hydroxy-1-phenyl-4-(3-(prop-1-en-2-yl)benzylamino)butan-2-yl)-3-((R)-2-(4-methyloxazol-2-yl)pyrrolidine-1-carbonyl)benzamide], on memapsin 2, the Ki is under 100 nM. For the same compound, the half-maximal inhibitory concentration (IC50) in assay [1] is under 300 nM.
